Assay results taken from patent publication US4704384A, “Aziridinyl quinone antitumor agents” (priority 1981, dated 1987).
Values joined by “and” are separate entries in the source; they are usually repeats but may differ in a detail not shown here. Equal entries are not always repeated. “Also recorded” adds a separate entry of the source. Where two headings read alike, the source gives them in different places.

Experiments:
[1] = tested on: lymphocytic leukemia P388; format: in vivo, murine; conditions: for ILS: QD1-9, at OD; for ILS / animals alive per 6: Table IX; for OD: QD1-9, Table IX; for animals alive per 6: QD1-9, day 30, at OD; for survivors, P388: Table XI, parentheses, per 6
B16 melanocarcinoma = format: in vivo, murine; conditions: for OD: QD1-9, Table IX; for ILS: QD1-9, at OD, Table IX
ependymoblastoma = format: in vivo, murine; conditions: for OD: QD1-5, Table X; for ILS: QD1-5, at OD; for ILS / animals alive per 6: Table X; for animals alive per 6: QD1-5, day 60, at OD; for survivors, EM: Table XI, parentheses, per 6
Description: ^c Ic tumor implantation, ip QD15 treatment schedule.
(§1) A third IC tumor model, the ependymoblastoma system, was also studied. This system requires intracerebral implantation of a solid tumor fragment while the IC L1210 and IC P388 systems utilize IC inoculated ascites tumor fluid. All three use IP drug treatment however. […] Cures (survivors from the group of six mice on the last day of the experiment) are indicated.

lymphoid leukemia L1210 [2] = conditions: for OD / ILS / T-C / animals alive per 6: Table VIII; for survivors, IP L1210: parentheses, per 6
Description: ^b Ip tumor implantation, ip QD19 treatment schedule.
^e ILS = [(treated survival + control survival) × 100%] - 100%
The L1210, P388 and B16 test systems described in Table II utilize intraperitoneal (IP) tumor implantation and IP drug treatment while the Lewis lung system employs subcutaneous tumor implantation and IP treatment. All three CNS tumor models (Table III) use intracerebral (IC) tumor implantation and IP treatment.
Aqueous saline solution (0.9%) was used as the drug vehicle. Normally, five doses were employed per experiment with the top dose chosen to produce toxicity. The lower doses were 50% of each preceeding dose.
Consistent with NCI antitumor test protocols, intraperitoneal (IP) administration of the drug was employed with all five tumor systems investigated. Tumor implantation was IP in the systems designated IP leukemia L1210 and P388 as well as B16 melanoma. Intracerebral (IC) tumor implantation was utilized in the IC L1210 and ependymoblastoma tumor systems.

lymphoid leukemia L1210 [3] = format: in vivo, murine; conditions: for OD: QD1-9, Table X; for ILS: QD1-9, at OD
Description: as §1

O=C1C(N2CCCC2)=C(N2CC2)C(=O)C(N2CCCC2)=C1N1CC1 [Compound 43, 2,5-DIAZIRIDINYL-3,6-DIPYRROLIDINO-1,4-BENZOQUINONE]
ILS [1]: 72% and 55%
OD (B16 melanocarcinoma): 2.0 mg/kg/injection
ILS (B16 melanocarcinoma): 28% and 18%
OD (ependymoblastoma): 1.6 mg/kg/injection and 3.1 mg/kg/injection
OD (lymphoid leukemia L1210 [2]; Day 1 only (1 injection)): 4.0 mg/kg/injection and 2.0 mg/kg/injection
ILS (lymphoid leukemia L1210 [2]; Day 1 only, at OD): 8%
OD (lymphoid leukemia L1210 [2]; Q4D (day 1,5,9)): 6.2 mg/kg/injection
ILS (lymphoid leukemia L1210 [2]; Q4D, at OD): 43%
T-C (lymphoid leukemia L1210 [2]; Q4D, day 5, at OD): -2.3 grams
OD (lymphoid leukemia L1210 [2]; QD1-9 (9 injections)): 2.0 mg/kg/injection
ILS (lymphoid leukemia L1210 [2]; QD1-9, at OD): 24% and 21%

O=C1C(NCCO)=C(N2CC2)C(=O)C(NCCO)=C1N1CC1 [Compound 38]
activity in IP P388 [1]: very active producing multiple cures
OD [1]: 0.4 mg/kg/injection
ILS [1]: 175% and 160%
animals alive per 6 [1]: 3 and 2
survivors, P388 [1]: 3
activity in B16 melanoma (B16 melanocarcinoma): reproducibly active
OD (B16 melanocarcinoma): 0.4 mg/kg/injection
ILS (B16 melanocarcinoma): 61% and 51%
activity in IC L1210 (lymphoid leukemia L1210 [3]): marginal IC L1210 activity
OD (lymphoid leukemia L1210 [3]): 0.75 mg/kg/injection
ILS (lymphoid leukemia L1210 [3]; Table X): 57% and 48%
OD (ependymoblastoma): 1.5 mg/kg/injection
ILS (ependymoblastoma): 83% and 70%
activity in IP L1210 (lymphoid leukemia L1210 [2]): Excellent activity; also recorded: produced cures; also recorded: superior
OD (lymphoid leukemia L1210 [2]; Day 1 only (1 injection)): 1.5 mg/kg/injection
ILS (lymphoid leukemia L1210 [2]; Day 1 only, at OD): 175% and 119%
animals alive per 6 (lymphoid leukemia L1210 [2]; Day 1 only, day 30, at OD): 5 and 3
OD (lymphoid leukemia L1210 [2]; Q4D (day 1,5,9)): 0.7 mg/kg/injection
ILS (lymphoid leukemia L1210 [2]; Q4D, at OD): 131% and 70%
OD (lymphoid leukemia L1210 [2]; QD1-9 (9 injections)): 0.7 mg/kg/injection
ILS (lymphoid leukemia L1210 [2]; QD1-9, at OD): 205% and 134%
animals alive per 6 (lymphoid leukemia L1210 [2]; QD1-9, day 30, at OD): 2 and 3
survivors, IP L1210 (lymphoid leukemia L1210 [2]; Table XI): 2
maximum ILS (lymphoid leukemia L1210 [2]; chronic schedule): > 200%

O=C1C(N2CCN(CCO)CC2)=C(N2CC2)C(=O)C(N2CCN(CCO)CC2)=C1N1CC1 [Compound 47]
activity in IP P388 [1]: very active producing multiple cures
OD [1]: 0.5 mg/kg/injection and 1.0 mg/kg/injection
ILS [1]: 143%
animals alive per 6 [1]: 3 and 6
survivors, P388 [1]: 3
ILS (B16 melanocarcinoma): 22%
activity in IC L1210 (lymphoid leukemia L1210 [3]): marginal IC L1210 activity
OD (lymphoid leukemia L1210 [3]): 2.0 mg/kg/injection and 1.5 mg/kg/injection
ILS (lymphoid leukemia L1210 [3]; Table X): 43% and 41%
T-C (lymphoid leukemia L1210 [3]; QD1-9, day 5, at OD, Table X): -1.4 grams
OD (ependymoblastoma): 1.0 mg/kg/injection
ILS (ependymoblastoma): 75%
activity in IP L1210 (lymphoid leukemia L1210 [2]): produced cures; also recorded: superior
OD (lymphoid leukemia L1210 [2]; Day 1 only (1 injection)): 4.0 mg/kg/injection
OD (lymphoid leukemia L1210 [2]; Q4D (day 1,5,9)): 4.0 mg/kg/injection and 2.0 mg/kg/injection
ILS (lymphoid leukemia L1210 [2]; Q4D, at OD): 180%
animals alive per 6 (lymphoid leukemia L1210 [2]; Q4D, day 30, at OD): 3 and 4
OD (lymphoid leukemia L1210 [2]; QD1-9 (9 injections)): 1.0 mg/kg/injection and 0.5 mg/kg/injection
T-C (lymphoid leukemia L1210 [2]; QD1-9, day 5, at OD): -1.7 grams
animals alive per 6 (lymphoid leukemia L1210 [2]; QD1-9, day 30, at OD): 1
ILS (%) IP L1210 (lymphoid leukemia L1210 [2]; Table XI, outstanding activity): 180%
survivors, IP L1210 (lymphoid leukemia L1210 [2]; Table XI): 3

O=C1C(F)=C(N2CC2)C(=O)C(N2CCOCC2)=C1N1CC1 [Compound 31, 2,5-DIAZIRIDINYL-3-FLUORO-5-MORPHOLINO-1,4-BENZOQUINONE]
activity in IP P388 [1]: active against leukemia P388
OD [1]: 3.0 mg/kg/injection and 6.0 mg/kg/injection
ILS [1]: 57% and 54%
OD (B16 melanocarcinoma): 0.7 mg/kg/injection
ILS (B16 melanocarcinoma): 18% and 9%
OD (ependymoblastoma): 0.8 mg/kg/injection and 1.5 mg/kg/injection
ILS (ependymoblastoma): 49% and 40%
OD (lymphoid leukemia L1210 [2]; Q4D (day 1,5,9)): 6.2 mg/kg/injection and 3.1 mg/kg/injection

CCOC(=O)NC1=C(N2CC2C)C(=O)C(NC(=O)OCC)=C(N2CC2C)C1=O (centres unmarked) [Compound 10]
activity in IP L1210 (lymphoid leukemia L1210 [2]): abolished activity

O=C1C(N2CCOCC2)=C(N2CC2)C(=O)C(N2CCOCC2)=C1N1CC1 [Compound 46, 2,5-DIAZIRIDINYL-3,6-DIMORPHOLINO-1,4-BENZOQUINONE]
OD [1]: 0.5 mg/kg/injection and 0.7 mg/kg/injection
ILS [1]: 52% and 48%
ILS (B16 melanocarcinoma): 24% and 17%
ILS (ependymoblastoma): 134% and 82%
ILS (lymphoid leukemia L1210 [2]; Day 1 only, at OD): -14%
OD (lymphoid leukemia L1210 [2]; Q4D (day 1,5,9)): 6.0 mg/kg/injection
ILS (lymphoid leukemia L1210 [2]; Q4D, at OD): 49% and 44%
T-C (lymphoid leukemia L1210 [2]; Q4D, day 5, at OD): -2.6 grams
ILS (lymphoid leukemia L1210 [2]; QD1-9, at OD): 64% and 32%

CCSC1=C(N2CC2)C(=O)C(SCC)=C(N2CC2)C1=O [Compound 5]
activity in IP L1210 (lymphoid leukemia L1210 [2]): not reproducible
% ILS (lymphoid leukemia L1210 [2]; Q4D schedule): 30%

O=C1C(N2CCCCC2)=C(N2CC2)C(=O)C(N2CCCCC2)=C1N1CC1 [Compound 44]
OD [1]: 5.0 mg/kg/injection and 10.0 mg/kg/injection
ILS [1]: 46% and 77%
OD (B16 melanocarcinoma): 5.0 mg/kg/injection and 2.5 mg/kg/injection
ILS (ependymoblastoma): 68% and 46%
ILS (lymphoid leukemia L1210 [2]; Day 1 only, at OD): 16% and 8%
ILS (lymphoid leukemia L1210 [2]; Q4D, at OD): 26% and 22%
OD (lymphoid leukemia L1210 [2]; QD1-9 (9 injections)): 10.0 mg/kg/injection
ILS (lymphoid leukemia L1210 [2]; QD1-9, at OD): 28%
T-C (lymphoid leukemia L1210 [2]; QD1-9, day 5, at OD): -2.2 grams

CCCCNC1=C(N2CC2)C(=O)C(NCCCC)=C(N2CC2)C1=O [Compound 37]
OD [1]: 5.0 mg/kg/injection and 10.0 mg/kg/injection
ILS [1]: 64% and 49%
OD (B16 melanocarcinoma): 10.0 mg/kg/injection and 5.0 mg/kg/injection
OD (ependymoblastoma): 6.0 mg/kg/injection and 3.0 mg/kg/injection
ILS (ependymoblastoma): 93%
activity in IP L1210 (lymphoid leukemia L1210 [2]): significant reduction in activity
OD (lymphoid leukemia L1210 [2]; Day 1 only (1 injection)): 10.0 mg/kg/injection
ILS (lymphoid leukemia L1210 [2]; Day 1 only, at OD): 11% and 5%
OD (lymphoid leukemia L1210 [2]; Q4D (day 1,5,9)): 12.5 mg/kg/injection and 8.2 mg/kg/injection
ILS (lymphoid leukemia L1210 [2]; Q4D, at OD): 44% and 25%
OD (lymphoid leukemia L1210 [2]; QD1-9 (9 injections)): 10.0 mg/kg/injection and 5.0 mg/kg/injection
ILS (lymphoid leukemia L1210 [2]; QD1-9, at OD): 36% and 30%

CCCSC1=C(N2CC2)C(=O)C(SCCC)=C(N2CC2)C1=O [Compound 6]
activity in IP L1210 (lymphoid leukemia L1210 [2]): inactive

CCCNC1=C(N2CC2)C(=O)C(NCCC)=C(N2CC2)C1=O [Compound 36]
OD [1]: 6.0 mg/kg/injection
ILS [1]: 151% and 108%
animals alive per 6 [1]: 2
survivors, P388 [1]: 2
OD (B16 melanocarcinoma): 5.0 mg/kg/injection
ILS (B16 melanocarcinoma): 36% and 32%
activity in ependymoblastoma (ependymoblastoma): highly active; also recorded: very active; also recorded: most active
OD (ependymoblastoma): 5.0 mg/kg/injection and 10.0 mg/kg/injection
ILS (ependymoblastoma): 259% and 143%
animals alive per 6 (ependymoblastoma): 2 and 1
survivors, EM (ependymoblastoma): 2
activity in IP L1210 (lymphoid leukemia L1210 [2]): significant reduction in activity
ILS (lymphoid leukemia L1210 [2]; Day 1 only, at OD): 17%
OD (lymphoid leukemia L1210 [2]; Q4D (day 1,5,9)): 6.2 mg/kg/injection
ILS (lymphoid leukemia L1210 [2]; Q4D, at OD): 28% and 25%
OD (lymphoid leukemia L1210 [2]; QD1-9 (9 injections)): 6.2 mg/kg/injection
ILS (lymphoid leukemia L1210 [2]; QD1-9, at OD): 48% and 43%

CCOC(=O)NC1=C(N2CC2(C)C)C(=O)C(NC(=O)OCC)=C(N2CC2(C)C)C1=O [Compound 11]
activity in IP L1210 (lymphoid leukemia L1210 [2]): abolished activity

CC(=O)NC1=C(N2CC2(C)C)C(=O)C(NC(C)=O)=C(N2CC2(C)C)C1=O [Compound 21]
activity in IP L1210 (lymphoid leukemia L1210 [2]): abolished activity

CCOC(=O)NC1=C(NCCCl)C(=O)C(NC(=O)OCC)=C(NCCCl)C1=O [Compound 12]
activity in IP L1210 (lymphoid leukemia L1210 [2]): activity was abolished

CNC1=C(N2CC2C)C(=O)C(NC)=C(N2CC2C)C1=O (centres unmarked) [Compound 26]
activity in B16 melanoma (B16 melanocarcinoma): reproducibly active
OD (B16 melanocarcinoma): 5.0 mg/kg/injection
ILS (B16 melanocarcinoma): 70% and 48%
OD (lymphoid leukemia L1210 [3]): 5.0 mg/kg/injection and 10.0 mg/kg/injection
ILS (lymphoid leukemia L1210 [3]; Table X): 39% and 25%
activity in ependymoblastoma (ependymoblastoma): highly active
OD (ependymoblastoma): 10.0 mg/kg/injection and 5.0 mg/kg/injection
animals alive per 6 (ependymoblastoma): 1
survivors, EM (ependymoblastoma): 1
OD (lymphoid leukemia L1210 [2]; Day 1 only (1 injection)): 5.0 mg/kg/injection and 10.0 mg/kg/injection
ILS (lymphoid leukemia L1210 [2]; Day 1 only, at OD): 42% and 39%
OD (lymphoid leukemia L1210 [2]; Q4D (day 1,5,9)): 12.5 mg/kg/injection
ILS (lymphoid leukemia L1210 [2]; Q4D, at OD): 93% and 52%
OD (lymphoid leukemia L1210 [2]; QD1-9 (9 injections)): 5.0 mg/kg/injection
ILS (lymphoid leukemia L1210 [2]; QD1-9, at OD): 69% and 37%
